Earlier results in patent US20230381267A1, “OXYTOCIN TREATMENT FOR HYPERMOBILE EHLERS-DANLOS SYNDROME” (Baylor College of Medicine, priority 2020, published 2023).

Experiments:
[1] = intranasal, individuals with tension-type headache and migraine
[2] = humans, preliminary research
[3] = IV administration, irritable bowel syndrome

CC[C@H](C)[C@@H]1NC(=O)[C@H](Cc2ccc(O)cc2)NC(=O)[C@@H](N)CSSC[C@@H](C(=O)N2CCC[C@H]2C(=O)N[C@@H](CC(C)C)C(=O)NCC(N)=O)NC(=O)[C@H](CC(N)=O)NC(=O)[C@H](CCC(N)=O)NC1=O [oxytocin]
headache relief [1]: relieve headache in a dose-dependent manner
pain sensitivity [2]: decreases pain sensitivity
effect on pain tolerance [3]: significant effect
average effect (Cohen d) (across central and peripheral modes of administration and type of noxious stimulus (heat, electric)): 2.28
duration of analgesic effects (after exogenous administration): approximately 1 hour
time at which analgesic effects were strongest (after exogenous administration): 20 to 30 min
animal studies in which oxytocin increased pain tolerance (systematic review Rash, AguirreCamacho and Campbell 2014): 29 of 33
